This is an account of results in US20240140957A1, “BRIDGED COMPOUNDS AS KRAS G12D INHIBITOR AND DEGRADER AND THE USE THEREOF” (BeiGene Switzerland GmbH, priority 2021, published 2024).

This experiment deals with GDP-loaded KRAS G12D (Homo sapiens, UniProt P01116, G12D). Put plainly: KRAS G12D Probe Displacement Assay. Format: binding. The note with it: KRAS G12D 0.5 nM, biotinylated probe 2 4 nM; Table 6 letters; read-out: KRAS G12D Probe Displacement Assay IC50 (class).

Some results are limits rather than exact numbers.

Sequence of GDP-loaded KRAS G12D (P01116 1-188 isoform P01116-2 G12D): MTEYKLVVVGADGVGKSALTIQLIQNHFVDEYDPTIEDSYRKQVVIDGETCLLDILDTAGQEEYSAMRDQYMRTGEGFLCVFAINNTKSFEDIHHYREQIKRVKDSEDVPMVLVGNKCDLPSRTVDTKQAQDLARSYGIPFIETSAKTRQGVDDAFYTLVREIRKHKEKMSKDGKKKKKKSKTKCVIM

In the case of `CN1CCCC(C#N)(COc2nc(N3CC4CCC(C3)N4)c3cc(Cl)c(-c4ccc(F)c5sc(N)nc45)c(F)c3n2)C1` (stereo not drawn) [Example E178, 3-(((7-(2-amino-7-fluorobenzo[d]thiazol-4-yl)-4-(3,8-diazabicyclo [3.2.1]octan-3-yl)-6-chloro-8-fluoroquinazolin-2-yl)oxy)methyl)-1-methylpiperidine-3-carbonitrile], the IC50 – broadly, the concentration that inhibits the measured activity by half – was < 50 nM.

On to `Nc1nc2c(-c3c(C(F)(F)F)cc4c(N5CC6CCC(C5)N6)nc(OC[C@H]5CNC(=O)CO5)nc4c3F)ccc(F)c2s1` [Example E179, (6R)-6-(((7-(2-amino-7-fluorobenzo[d]thiazol-4-yl)-4-(3,8-diazabicyclo[3.2.1]octan-3-yl)-8-fluoro-6-(trifluoromethyl)quinazolin-2-yl)oxy)methyl)morpholin-3-one], for which the IC50 is < 50 nM. Then `CC(F)(F)C1(COc2nc(N3CC4CCC(C3)N4)c3cc(C(F)(F)F)c(-c4ccc(F)c5sc(N)nc45)c(F)c3n2)COC1` [Example E180, 4-(4-(3,8-diazabicyclo[3.2.1]octan-3-yl)-2-((3-(1,1-difluoroethyl)oxetan-3-yl)methoxy)-8-fluoro-6-(trifluoromethyl)quinazolin-7-yl)-7-fluorobenzo[d]thiazol-2-amine], with < 50 nM; and `CC1(COc2nc(N3CC4CCC(C3)N4)c3cc(C(F)(F)F)c(-c4ccc(F)c5sc(N)nc45)c(F)c3n2)CCOC1` (stereo not drawn) [Example E181, 4-(4-(3,8-diazabicyclo[3.2.1]octan-3-yl)-8-fluoro-2-((3-methyltetrahydrofuran-3-yl)methoxy)-6-(trifluoromethyl)quinazolin-7-yl)-7-fluorobenzo[d]thiazol-2-amine], with < 50 nM; and `CC1(COc2nc(N3CC4CCC(C3)N4)c3cc(C(F)(F)F)c(-c4ccc(F)c5sc(N)nc45)c(F)c3n2)CCOCC1` [Example E182, 4-(4-(3,8-diazabicyclo[3.2.1]octan-3-yl)-8-fluoro-2-((4-methyltetra hydro-2H-pyran-4-yl)methoxy)-6-(trifluoromethyl)quinazolin-7-yl)-7-fluorobenzo[d]thiazol-2-amine], with < 50 nM. Then `CC1(COc2nc(N3CC4CCC(C3)N4)c3cc(C(F)(F)F)c(-c4ccc(F)c5sc(N)nc45)c(F)c3n2)CCCOC1` (stereo not drawn) [Example E183, 4-(4-(3,8-diazabicyclo[3.2.1]octan-3-yl)-8-fluoro-2-((3-methyltetra hydro-2H-pyran-3-yl)methoxy)-6-(trifluoromethyl)quinazolin-7-yl)-7-fluorobenzo[d]thiazol-2-amine], with < 50 nM; and `Nc1nc2c(-c3c(C(F)(F)F)cc4c(N5CC6CCC(C5)N6)nc(OCCc5cccnc5)nc4c3F)ccc(F)c2s1` [Example E184, 4-(4-(3,8-diazabicyclo[3.2.1]octan-3-yl)-8-fluoro-2-(2-(pyridin-3-yl)ethoxy)-6-(trifluoromethyl)quinazolin-7-yl)-7-fluorobenzo [d]thiazol-2-amine], with < 50 nM; and `Nc1nc2c(-c3c(C(F)(F)F)cc4c(N5CC6CCC(C5)N6)nc(OCCn5cccn5)nc4c3F)ccc(F)c2s1` [Example E185, 4-(2-(2-(1H-pyrazol-1-yl)ethoxy)-4-(3,8-diazabicyclo[3.2.1]octan-3-yl)-8-fluoro-6-(trifluoromethyl)quinazolin-7-yl)-7-fluorobenzo[d]thiazol-2-amine], with < 50 nM.

Take `N#CC12CC(COc3nc(N4CC5CCC(C4)N5)c4cc(C(F)(F)F)c(-c5ccc(F)c6sc(N)nc56)c(F)c4n3)(C1)C2` [Example E186, 3-(((7-(2-amino-7-fluorobenzo[d]thiazol-4-yl)-4-(3,8-diazabicyclo [3.2.1]octan-3-yl)-8-fluoro-6-(trifluoromethyl)quinazolin-2-yl)oxy)methyl)bicyclo[1.1.1] pentane-1-carbonitrile]: the IC50 is < 50 nM. With `Nc1nc2c(-c3c(C(F)(F)F)cc4c(N5CC6CCC(C5)N6)nc(OCC5(CO)CCOCC5)nc4c3F)ccc(F)c2s1` [Example E187, (4-(((7-(2-amino-7-fluorobenzo[d]thiazol-4-yl)-4-(3,8-diazabicyclo[3.2.1]octan-3-yl)-8-fluoro-6-(trifluoromethyl)quinazolin-2-yl)oxy)methyl)tetrahydro-2H-pyran-4-yl)methanol], the 50% inhibitory concentration (IC50) was < 50 nM.

For the compound `N#Cc1cncc(CCOc2nc(N3CC4CCC(C3)N4)c3cc(C(F)(F)F)c(-c4ccc(F)c5sc(N)nc45)c(F)c3n2)c1` [Example E188, 5-(2-((7-(2-amino-7-fluorobenzo[d]thiazol-4-yl)-4-(3,8-diazabicyclo[3.2.1]octan-3-yl)-8-fluoro-6-(trifluoromethyl)quinazolin-2-yl)oxy)ethyl) nicotinonitrile], the IC50 is < 50 nM. The same measure for `Nc1nc2c(-c3c(C(F)(F)F)cc4c(N5CC6CCC(C5)N6)nc(OCCC5COC5)nc4c3F)ccc(F)c2s1` [Example E189, 4-(4-(3,8-diazabicyclo[3.2.1]octan-3-yl)-8-fluoro-2-(2-(oxetan-3-yl)ethoxy)-6-(trifluoromethyl)quinazolin-7-yl)-7-fluorobenzo[d]thiazol-2-amine]: < 50 nM; for `Nc1nc2c(-c3c(C(F)(F)F)cc4c(N5CC6CCC(C5)N6)nc(OCC5(CO)CCCC5)nc4c3F)ccc(F)c2s1` [Example E190, (1-(((7-(2-amino-7-fluorobenzo[d]thiazol-4-yl)-4-(3,8-diazabicyclo[3.2.1]octan-3-yl)-8-fluoro-6-(trifluoromethyl)quinazolin-2-yl)oxy)methyl)cyclopentyl)methanol]: < 50 nM; for `Nc1nc2c(-c3c(C(F)(F)F)cc4c(N5CC6CCC(C5)N6)nc(OCC5(CO)CCCCC5)nc4c3F)ccc(F)c2s1` [Example E191, (1-(((7-(2-amino-7-fluorobenzo[d]thiazol-4-yl)-4-(3,8-diazabicyclo[3.2.1]octan-3-yl)-8-fluoro-6-(trifluoromethyl)quinazolin-2-yl)oxy)methyl)cyclohexyl) methanol]: < 50 nM. As for `N#CC1(COc2nc(N3CC4CCC(C3)N4)c3cc(C(F)(F)F)c(-c4ccc(F)c5sc(N)nc45)c(F)c3n2)CCCC1` [Example E192, 1-(((7-(2-amino-7-fluorobenzo[d]thiazol-4-yl)-4-(3,8-diazabicyclo [3.2.1]octan-3-yl)-8-fluoro-6-(trifluoromethyl)quinazolin-2-yl)oxy)methyl)cyclopentane-1-carbonitrile], the IC50 is < 50 nM. In the case of `Cc1cc(N)nc(-c2c(Cl)cc3c(N4CC5CCC(C4)N5)nc(OCC(C)(C)CO)nc3c2F)c1C(F)(F)F` [Example E193, 3-((7-(6-amino-4-methyl-3-(trifluoromethyl)pyridin-2-yl)-4-(3,8-diazabicyclo[3.2.1]octan-3-yl)-6-chloro-8-fluoroquinazolin-2-yl)oxy)-2,2-dimethylpropan-1-ol], the IC50 is < 50 nM. Regarding `Cc1cc(N)nc(-c2c(Cl)cc3c(N4CC5CCC(C4)N5)nc(OCC(C)(C)C#N)nc3c2F)c1C(F)(F)F` [Example E194, 3-((7-(6-amino-4-methyl-3-(trifluoromethyl)pyridin-2-yl)-4-(3,8-diazabicyclo[3.2.1]octan-3-yl)-6-chloro-8-fluoroquinazolin-2-yl)oxy)-2,2-dimethylpropanenitrile], the IC50 was < 50 nM. Then `Cc1cc(N)nc(-c2c(Cl)cc3c(N4CC5CCC(C4)N5)nc(OCC4(C#N)CCOCC4)nc3c2F)c1C(F)(F)F` [Example E195, 4-(((7-(6-amino-4-methyl-3-(trifluoromethyl)pyridin-2-yl)-4-(3,8-diazabicyclo[3.2.1]octan-3-yl)-6-chloro-8-fluoroquinazolin-2-yl)oxy)methyl)tetrahydro-2H-pyran-4-carbonitrile], with < 50 nM; and `Cc1cc(N)nc(-c2c(Cl)cc3c(N4CC5CCC(C4)N5)nc(OCC4(CO)CCOCC4)nc3c2F)c1C(F)(F)F` [Example E196, (4-(((7-(6-amino-4-methyl-3-(trifluoromethyl)pyridin-2-yl)-4-(3,8-diazabicyclo[3.2.1]octan-3-yl)-6-chloro-8-fluoroquinazolin-2-yl)oxy)methyl)tetrahydro-2H-pyran-4-yl)methanol], with < 50 nM. For the compound `Cc1cc(N)nc(-c2c(Cl)cc3c(N4CC5CCC(C4)N5)nc(OCC4(CO)CC4)nc3c2F)c1C(F)(F)F` [Example E197, (1-(((7-(6-amino-4-methyl-3-(trifluoromethyl)pyridin-2-yl)-4-(3,8-diazabicyclo[3.2.1]octan-3-yl)-6-chloro-8-fluoroquinazolin-2-yl)oxy)methyl)cyclopropyl) methanol], the IC50 was < 50 nM. For `Cc1cc(N)nc(-c2c(Cl)cc3c(N4CC5CCC(C4)N5)nc(OCC4(CO)CCCC4)nc3c2F)c1C(F)(F)F` [Example E198, (1-(((7-(6-amino-4-methyl-3-(trifluoromethyl)pyridin-2-yl)-4-(3,8-diazabicyclo[3.2.1]octan-3-yl)-6-chloro-8-fluoroquinazolin-2-yl)oxy)methyl)cyclopentyl) methanol], the IC50 was 50 to 100 nM. Turning to `Cc1cc(N)nc(-c2c(Cl)cc3c(N4CC5CCC(C4)N5)nc(OCC4(C#N)CCCC4)nc3c2F)c1C(F)(F)F` [Example E199, 1-(((7-(6-amino-4-methyl-3-(trifluoromethyl)pyridin-2-yl)-4-(3,8-diazabicyclo[3.2.1]octan-3-yl)-6-chloro-8-fluoroquinazolin-2-yl)oxy)methyl)cyclopentane-1-carbonitrile], the IC50 was in the range of 50 to 100 nM. For the compound `Cc1cc(N)nc(-c2c(Cl)cc3c(N4CC5CCC(C4)N5)nc(OCC4(CO)CCC4)nc3c2F)c1C(F)(F)F` [Example E200, (1-(((7-(6-amino-4-methyl-3-(trifluoromethyl)pyridin-2-yl)-4-(3,8-diazabicyclo[3.2.1]octan-3-yl)-6-chloro-8-fluoroquinazolin-2-yl)oxy)methyl)cyclobutyl) methanol], the IC50 is < 50 nM. The same measure for `Cc1cc(N)nc(-c2c(Cl)cc3c(N4CC5CCC(C4)N5)nc(OCC4(C)CCCOC4)nc3c2F)c1C(F)(F)F` (stereo not drawn) [Example E201, 6-(4-(3,8-diazabicyclo[3.2.1]octan-3-yl)-6-chloro-8-fluoro-2-((3-methyltetrahydro-2H-pyran-3-yl)methoxy)quinazolin-7-yl)-4-methyl-5-(trifluoromethyl)pyridin-2-amine]: 100 to 1000 nM.
